This is an account of results in paper PMC8472378, “Desferrioxamine B-Mediated Pre-Clinical In Vivo Imaging of Infection by the Mold Fungus Aspergillus fumigatus” (Journal of Fungi, 2021).

The subject of one data set is A. fumigatus. As to conditions: cited from earlier work.
Data set [1] relates to A. fumigatus mutant strain (∆sidA/∆ftrA). Put plainly: Siderophore utilization via growth promotion on solid minimal medium. As to conditions: 0.1 µM iron-loaded siderophore, 48 h at 37 °C. It counts as cell-based, Aspergillus fumigatus. How it is done: Growth assays were performed on solid Aspergillus minimal medium (AMM), as described above, solidified with 1.8% (w/v) agar. The pH was adjusted with NaOH, and the medium was supplemented with the respective siderophore. The agar plates were point-inoculated with 10^4 spores per dot of ∆sidA∆ftrA [10] and incubated at 37 °C for 48 h.

Data set [2] deals with pulmonary A. fumigatus infection. Put plainly: Ex vivo biodistribution in A. fumigatus-infected rats. Also noted: species or system rat. As to conditions: 45 min p.i.; for radioactivity accumulation in non-infected organs (blood, spleen, pancreas, liver, heart and muscle) / route of excretion / uptake in the infected lungs as compared with radiolabeled DFO-B in the same rat: infected rats; for uptake in the infected lungs as compared with radiolabeled DFO-B in the same rat: co-injection. How it is done: A previously described rat model of pulmonary aspergillosis was used for the in vivo experiments. The introduction of A. fumigatus spores into animals, injection of radiolabeled siderophores and small animal imaging were carried out under 2% isoflurane anesthesia (FORANE, Abbott Laboratories, Abbott Park, IL, USA) to minimize animal suffering and prevent animal motion. Infection in the lung of immunodeficient rats was established by intratracheal inoculation of 100 μL of A. fumigatus spores (10^9 CFU/mL A. fumigatus ATCC 46645; American Type Culture Collection) using the TELE PACK VET X LED system equipped with a flexible endoscope (https://www.karlstorz.com/cps/rde/xbcr/karlstorz_assets/ASSETS/3386919.pdf, accessed on 20 August 2021; Karl Storz GmbH & Co. KG, Tuttlingen, Germany). Depending on the development of the infection, experimental animals underwent an ex vivo biodistribution study or PET/CT imaging, typically 2–4 days after inoculation.
A. fumigatus-infected rats were retro-orbitally (r.o.) injected with [^67Ga]- and [^68Ga]Ga-DFO-B and DFO-E. One infected rat (rat 1) was injected with [^68Ga]Ga-DFO-B and [^67Ga]Ga-DFO-E, while the second rat (rat 2) was […] with [^67Ga]Ga-DFO-B and [^68Ga]Ga-DFO-E (~0.5 MBq and ~0.5 µg of each DFO-B and DFO-E per rat). Rats were sacrificed by exsanguination 45 min post-injection (p.i.). Organs and tissues of interest (blood, spleen, pancreas, kidneys, liver, heart, muscle and lung) were removed and weighed. The amount of radioactivity in the samples was measured in a γ-counter (2480 Wizard-2; Perkin Elmer, Waltham, MA, USA). First, a short-lived ^68Ga was measured immediately after organ removal in the 511 ± 100 keV energy window, and ^67Ga was measured after 24 h in the 185 ± 100 keV energy window. The results are expressed as percentage of injected dose per gram of organ (%ID/g).

Data set [3] has as its system A. fumigatus strain Afs77. Put plainly: Short-term siderophore uptake analysis. As to conditions: pH 9, 45 min at 37 °C. It counts as cell-based, Aspergillus fumigatus. How it is done:
Short-term uptake of siderophore-complexed ^68Ga was analyzed as described previously. A. fumigatus strain Afs77 [25] was grown for 18 h at 37 °C in 100 mL Aspergillus minimal medium (AMM) according to Pontecorvo et. al. with 1% (w/v) glucose as the carbon source and 20 mM glutamine as the nitrogen source, using iron-free trace elements to induce iron limiting for the transcriptional activation of siderophore uptake. To generate iron-replete mycelia for the transcriptional downregulation of siderophore uptake, the growth medium contained an additional 0.03 mM FeSO4. For the analysis of the pH-dependent siderophore uptake, the pH of the fungal culture medium was adjusted with HCl (1 M) and NaOH (1 M) immediately before the uptake analyses. Uptake assays were performed with 180 µL of liquid A. fumigatus culture added to a prewetted 96-well MultiScreen Filter Plates HTS (1 μm glass fiber filter, Merck Millipore, Darmstadt, Germany). Then, 50 µL of radioactive labelled siderophores (~100 nM) were added to the culture and incubated for 45 min at 37 °C. After washing two times with ice-cold TRIS buffer, the dried filters were measured in a γ-counter.

A further data set concerns R. oryzae. More on the design: method as in PMID 23818006. As to conditions: cited from earlier work.
The subject of another data set is Staphylococcus aureus. As to conditions: cited from earlier work.
The next data set deals with Aspergillus flavus. More on the design: method as in PMID 23818006. As to conditions: cited from earlier work.
For data set [4] the following is noted: non-infected rats; cited from earlier work.
For another data set, the system named is Fusarium solani. More on the design: method as in PMID 23818006. As to conditions: cited from earlier work.
The subject of the next data set is Aspergillus terreus. Also noted: method as in PMID 23818006. As to conditions: cited from earlier work.
Another data set deals with Mycobacterium smegmatis. More on the design: method as in PMID 23818006. As to conditions: cited from earlier work.
The subject of a further data set is Pseudomonas aeruginosa. As to conditions: cited from earlier work.
The test system of a further data set is Candida albicans. Also noted: method as in PMID 23818006. As to conditions: cited from earlier work.
In the next data set the test system is Klebsiella pneumoniae. As to conditions: cited from earlier work.
The subject of another data set is Rhizopus arrhizus. More on the design: method as in PMID 23818006. As to conditions: cited from earlier work.

For the compound `CC(=O)N(O)CCCCCNC(=O)CCC(=O)N(O)CCCCCNC(=O)CCC(=O)N(O)CCCCCN` [DFO-B, desferrioxamine B], the “in vitro uptake compared to the TAFC and DFO-E metal complexes” value with A. fumigatus is listed as “significantly lower in vitro uptake”.

Consider `CC(=O)N([O-])CCCCCNC(=O)CCC(=O)N([O-])CCCCCNC(=O)CCC(=O)N([O-])CCCCCN.[Fe+3]` [Fe-DFO-B], for which the growth promotion activity result in [1] (pH 5 (acidic), listed as Fe-DFO-B^ac) is “rescued the growth promotion”; in data set [1] (pH 7 (neutral)), “promoted growth”; in [1] (pH 9 (alkaline)) it was “promoted growth”.

On to `CC(=O)N([O-])CCCCCNC(=O)CCC(=O)N([O-])CCCCCNC(=O)CCC(=O)N([O-])CCCCCNC(=O)CCC(=O)O.[Fe+3]` [Fe-DFO-B^suc], for which the growth promotion activity entry in data set [1] (pH 9 (alkaline)) is “lowest growth promotion activity”.

Consider `O=C1CCC(=O)N([O-])CCCCCNC(=O)CCC(=O)N([O-])CCCCCNC(=O)CCC(=O)N([O-])CCCCCN1.[Fe+3]` [Fe-DFO-E], for which the growth promotion activity entry in data set [1] (pH 5 (acidic)), in data set [1] (pH 7 (neutral)) and in data set [1] (pH 9 (alkaline)) was “promoted the growth” each time.

For the compound `CC(=O)N([O-])CCCCCNC(=O)CCC(=O)N([O-])CCCCCNC(=O)CCC(=O)N([O-])CCCCCN.[67Ga+3]` [[^67Ga]Ga-DFO-B], in data set [2], the “radioactivity accumulation in non-infected organs (blood, spleen, pancreas, liver, heart and muscle)” value is “low radioactivity accumulation”; the route of excretion entry was “primary excretion via kidneys”.

Turning to `O=C1CCC(=O)N([O-])CCCCCNC(=O)CCC(=O)N([O-])CCCCCNC(=O)CCC(=O)N([O-])CCCCCN1.[67Ga+3]` [[^67Ga]Ga-DFO-E], in data set [2], the “radioactivity accumulation in non-infected organs (blood, spleen, pancreas, liver, heart and muscle)” value is “low radioactivity accumulation”; the route of excretion entry was “primary excretion via kidneys”; the “uptake in the infected lungs as compared with radiolabeled DFO-B in the same rat” value was “only slightly higher uptake”.

As for `CC(=O)N([O-])CCCCCNC(=O)CCC(=O)N([O-])CCCCCNC(=O)CCC(=O)N([O-])CCCCCNC(=O)CCC(=O)O.[68Ga+3]` [[^68Ga]Ga-DFO-B^suc], the “uptake efficacy (in words)” value in data set [3] is recorded as “highly decreased uptake efficacy”.

`O=C1CCC(=O)N([O-])CCCCCNC(=O)CCC(=O)N([O-])CCCCCNC(=O)CCC(=O)N([O-])CCCCCN1.[68Ga+3]` [[^68Ga]Ga-DFO-E]: the “ratio of activity in lung vs. blood” value in data set [2] (infected rat 1 (injected with [68Ga]Ga-DFO-B and [67Ga]Ga-DFO-E)) is “about 17”; in data set [2] (infected rat 2 (injected with [67Ga]Ga-DFO-B and [68Ga]Ga-DFO-E)), about 8. Moreover, the “radioactivity accumulation in non-infected organs (blood, spleen, pancreas, liver, heart and muscle)” value in data set [2] is recorded as “low radioactivity accumulation”. Also, in [2], the route of excretion result is recorded as “primary excretion via kidneys”. For the same compound, the “uptake in the infected lungs as compared with radiolabeled DFO-B in the same rat” value in data set [2] was “only slightly higher uptake”. For the same compound, the in vitro uptake entry is listed as “highest uptake” in the data set with A. fumigatus; “considerable uptake” in the data set with R. oryzae; “considerable uptake” in the data set with Staphylococcus aureus; “considerable uptake” in the data set on Aspergillus flavus; “considerable uptake” with Fusarium solani; “considerable uptake” in the data set on Aspergillus terreus. For the same compound, the “accumulation in the lungs” value in data set [4] was “negligible accumulation”. In data set [4], the “ratio of 68Ga activity in lung vs. blood” value is on record as 0.79.

For the compound `CC(=O)N[C@H]1CCCN2[O][Ga]3[O]N(CCC[C@H](NC(C)=O)C(=O)OCC/C(C)=C/C(=O)N(CCC[C@H](NC(C)=O)C(=O)OCC/C(C)=C/C2=O)[O]3)C(=O)/C=C(\C)CCOC1=O` [[^68Ga]Ga-TAFC], the in vitro uptake entry is reported as “uptake” with A. fumigatus; “no significant uptake” in the data set on Staphylococcus aureus; “no significant uptake” in the data set on Aspergillus flavus; “no significant uptake” with Mycobacterium smegmatis; “no significant uptake” with Pseudomonas aeruginosa; “no significant uptake” in the data set with Candida albicans. Also, the in vitro uptake entry was “no significant uptake” with Klebsiella pneumoniae, “uptake” in the data set with Rhizopus arrhizus and “no significant uptake” in the data set on Aspergillus terreus.
